Source: US12344599B2, “Prodigiosin analogs and methods of use” (Institute For Cancer Research, priority 2016, dated 2025)
Where two headings read alike, the source gives them in different places. * marks the point of attachment. Cbz = O=C(OCc1ccccc1)*; CH2F = FC*

What was measured:
Type in all cases: cell-based, human
[1] = tested on: γ-H2AX in HT29 and SW480 cells; test: γ-H2AX DNA damage marker, western blot and immunofluorescence staining
Experimental: (§1) After treatment, protein lysates were collected for Western blot analysis. A total of […] of protein was used for SDS-PAGE. After primary and secondary antibody incubations, the signal was detected by a chemiluminescence detection kit, imaged by Syngene (Imgen Technologies). Antibodies for PUMA (for IHC), p53 (Santa Cruz Biotechnology), caspase 8, cleaved caspase 8, caspase 9, caspase 3, cleavage PARP, eIF2α, p-eIF2α (Ser51), CHOP, ATF4, DR5, FOXO3a, p-FOXO3a (Ser253), NF-κB p65, p-NF-κB p65 (Ser536), c-Jun, p-c-Jun (Ser63), JNK, p-JNK (Thr183/Tyr185), PUMA (for WB), c-Myc, phosphor-S62-cMyc (Cell Signaling Technology), Noxa, p21 (Calbiochem), p73 (Bethyl laboratories Inc), Ran (BD Biosciences), […] (Sigma).
A total of 5×10^4 cells were seeded in each well of 8-well chamber slides. After treatment, cells were fixed and permeabilized by methanol:acetone (1:1) for 20 minutes at −20° C. Fixed cells were blocked by 2% BSA for 1 hour, followed by primary antibody incubation for 1 hours and Cy3-conjuated secondary antibody incubation for 1 hour at room temperature. After washing, cells were stained with DAPI for 10 minutes at room temperature. Cells were mounted, and examined by fluorescence microscopy.
DNA damage induces the p53 pathway and leads to cell apoptosis. To study whether the p53 pathway restoration by compound PG3-Oc is due to DNA damage, the uptake and localization of PG3-Oc was investigated in cells. PG3-Oc and prodigiosin are red fluorescent compounds, and their localization in live cells can be monitored by fluorescence microscopy. PG3-Oc and prodigiosin rapidly entered cells within 2 hours of incubation and remained in the cytosol at the 8-hour time point in HT29 and SW480 cells (FIG. 46). […] Baldino, et al. reported that prodigiosin localized to the cytoplasm, but not within the nucleus, and no γ-H2AX signal was detected in A549 cancer cells (Baldino et al., Bioorg Med Chem Lett, 2006, 16, 701-704). […]

[2] = tested on: SW480, DLD1 and p53-null cell line HCT116; test: CellTiter-Glo luminescent cell viability assay (Example 1)
Experimental: SW480, DLD-1, DLD1-p73KD, HCT116, and p53-null HCT116, MRC5 and Wi38 cells were seeded at 5,000 cells per well on 96-well plates. […] Then, cells were mixed with an equal volume of CellTiter-Glo® reagents (Promega), following the manufacturer's protocol, and bioluminescence imaging was measured using the IVIS imager.

p53-target genes = test: Western blotting of p53-target genes (Example 1)
Experimental: After treatment, protein lysates were collected for Western blot analysis. Twenty-five micrograms of protein were used for SDS-PAGE. After primary and secondary antibody incubations, the signal was detected with a chemiluminescent detection kit, followed by autoradiography or Syngen. […] In FIG. 10, p53-null HCT116 cells were treated with P01 and P306, alone or in combination with SiCon or SiTAp73, in various concentrations for 6 hours, and tested for p73 (C.S.), p73 (Bethyl), P63-α, p53, DR5, Puma, P21, and Ran proteins.

c-Myc and PUMA = test: Western blot of c-Myc, PUMA and p53 target genes; details: HT29 cells
Experimental: as §1
To test this hypothesis, two ERK1/2 inhibitors that act by different mechanisms were used. U0126 is an indirect ERK1/2 inhibitor. It inhibits MEK1 kinase and blocks the phosphorylation of ERK1/2. […] Consistent with a previous publication (Choi et al., Genes Dev, 2010, 24, 1236-1241), SCH772984 can inhibit ERK1/2 function after ERK1/2 is phosphorylated (FIG. 73), and the same is observed for PG3-Oc (FIG. 73).

HT29 cells = test: Flow cytometry sub-G1 (PI staining) analysis; details: HT29, 20 μM Z-VAD-FMK co-treated with 1 μM PG3-Oc, 48 hours
Experimental: • 1) Cell lines: HT29, SW480, DLD-1, HCT116, and p53-null HCT116 cells, H1975, MDA-MD-231, U251, FaDu, CAL-27, PANC-1, Aspc-1, and MRC5 were obtained from the ATCC and cultured as recommended. Cells were regularly authenticated by bioluminescence, growth, and morphologic observation. The cells were routinely examined for Mycoplasma and all cell lines underwent STR authentication. • 2) Western blotting: After treatment, protein lysates were collected for Western blot analysis. 15 μg of protein was used for SDS-PAGE. After primary and secondary antibody incubations, the signal was detected by chemiluminescent detection kit, imaged by Syngene (Imgen Technologies). Antibodies for Puma, FLIPL/S and p53 (Santa Cruz Biotechnology), cleaved caspase 8, caspase 9, caspase 3, cleavage PARP, eIF2α, p-eIF2α(Ser51), CHOP, ATF4, DR5, FOXO3a, p-FOXO3a(Ser253), NF-κB p65, p-NF-κB p65(Ser536), c-Jun, p-c-Jun(Ser63), JNK, p-JNK(Thr183/Tyr185) (Cell Signaling Technology), Noxa, p21 (Calbiochem), p73 (Bethyl laboratories Inc), Ran (BD Biosciences), […] (Sigma). • 3) Cell viability assay: Cells were seeded in 96-well plate (6×10^3 cells/well). Cells were treated with different concentrations of compounds or dimethyl sulfoxide (DMSO) control for 72 hours. The cell viability was assessed by CellTiterGlo bioluminescent cell proliferation assay (Promega), following the manufacturer's protocol. Bioluminescence imaging was measured using the IVIS imager. Percentage of cell viability (mean±SEM) at each dose was calculated against the respective DMSO control. The IC50 values were determined from the sigmoidal dose-response curves using GraphPad Prims4. • 4) Caspase activity assay: Cells were seeded in 96-well plate (1×10^4 cells/well). Cells were treated with different concentrations of compounds or DMSO control for 24 hours. The caspase 3/7 activity was assessed by Caspase-Glo® 3/7 Assay kit (Promega), following the manufacturer's protocol. Bioluminescence imaging was measured using the IVIS imager. Caspase activity was normalized to cell numbers and compared to those of DMSO treatment as control in each cell line. Data is reported as mean RLU+SEM (n=3). • 5) Colony formation assays: Five hundred cells were seeded per well on 6-well plates and treated with different concentrations of compounds for 24 hours, then, cells were cultured with drug-free complete medium for 2 weeks with fresh medium changed every 7 days. Cells were fixed with 10% formalin and stained with 0.05% crystal violet at the end of 2 weeks period of cell culture. • 6) Flow cytometry assay: • a) Cell Cycle Analysis: Propidium iodide (PI) staining and flow cytometry were used to determine the degree of cellular apoptosis. Cells were seeded at 3×10^5 cells/well in six-well plates. Cells were treated with PG3-Oc for 48 hours. Cells were harvested, fixed by 70% ethanol, and stained by propidium iodide, then flow cytometry was performed as previously described (Smithen et al., Org. Biomol. Chem., 2013, 11, 62-68). The percentage of hypodiploid cells (sub-G1) was used to quantify dead cells in apoptosis assays. • b) Early apoptosis detection: Cells were seeded at 3×10^5 cells/well in six-well plates. Cells were treated with PG3-Oc for 48 hours. […]

## CCc1c2c(nc3ccc(OC(=O)N4CCC(N5CCCCC5)CC4)cc13)-c1cc3c(c(=O)n1C2)COC(=O)[C@]3(O)CC [CPT-11, Irinotecan]
[1]
  induction of 65-H2AX (DNA damage marker) / foci formation: significantly induced

## CCc1c(C)[nH]c(/C=C2\N=C(c3ccc[nH]3)C=C2OC)c1C [P301]
[2]; SW480, DLD1, p53-null HCT116
  induction of cell death: potently induced cell death
[2]; SW480, DLD1, p53-null HCT116, 72 hours
  IC50 values: within nanomolar range
p53-target genes
  expression of p53-target genes: induced the expression of p53-target genes via p73

## O=C(Nc1ccc2[nH]nc(-c3ccncc3)c2c1)[C@@H]1CCN(CC(=O)N2CCN(c3ccc(-c4ncccn4)cc3)CC2)C1 [SCH772984]
c-Myc and PUMA
  effect on c-Myc and PUMA: potently induced the downregulation of c-Myc and the upregulation of PUMA
  effect on p53 target genes DR5, p21 and Noxa: did not induce DR5, shown mild upregulation of p21 and suppressed Noxa expression

## N#CC(=C(/N)Sc1ccccc1N)/C(C#N)=C(\N)Sc1ccccc1N [U0126]
c-Myc and PUMA
  effect on c-Myc and PUMA: potently induced the downregulation of c-Myc and the upregulation of PUMA

## CCCCCc1cc(/C=C2\N=C(c3ccc[nH]3)C=C2OC)[nH]c1C [prodigiosin, Prodigiosin]
[1]; HT29 and SW480, 8-hour treatment
  induction of 65-H2AX (DNA damage marker) / foci formation: did not induce

## Cbz-Val-Ala-Asp-CH2F [reference compound]
HT29 cells
  formation of a sub-G1 population induced by PG3-Oc: completely blocked
